In publication PMC6637479, “Identification of undecylenic acid as EAG channel inhibitor using surface plasmon resonance-based screen of KCNH channels” (BMC Pharmacology & Toxicology, 2019):

Target: T1, mEAG1 (Mus musculus, UniProt Q60603)
T1 construct: gene Kcnh1; PAS domain, residues 7–136 (N-terminal 6-His)
T1 sequence (Q60603 7-136): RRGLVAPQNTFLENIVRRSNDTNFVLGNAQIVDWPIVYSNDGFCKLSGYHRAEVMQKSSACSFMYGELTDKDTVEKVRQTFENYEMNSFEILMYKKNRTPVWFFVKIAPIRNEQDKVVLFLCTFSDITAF
Assay: SPR steady-state dose response (Biacore […]); also inhibits full-length mEAG1 currents in inside-out patches, IC50 […]
Assay type: binding

Structure (SMILES): C=CCCCCCCCCC(=O)O [undecylenic acid]
- Kd: ~11 µM
